Format in all cases: in vivo, rat
What all share (details): 300 mg/Kg p.o.

For experiment [1], the system named is male rats (SPF). Briefly: Water immersion stress gastric mucosa damage test. How it is done:
A water immersion stress gastric mucosa damage test was conducted on male rats (SPF) using the composite magnesium oxide particles obtained in Example 5. For comparison, magnesium oxide manufactured by Kyowa Chemical Industry Co., Ltd. was used.
(§1) administration route: oral administration applied dose: 5 mL/Kg administration means: administered by using a disposable injection cylinder and a sonde for oral administration administration time: administered 60 minutes before the preparation of a gastric mucosa damaged model
(§2) After about 24 hours of fasting, the rats were put into a stress cage (manufactured by Natsume Seisakusho Co., Ltd.), and the cage was immersed in a water tank at 23° C. 6 hours after that, the blood was removed from the rats to kill them under anesthesia with pentobarbital sodium (40 mg/Kg, i.p.), and the stomachs of these rats were extracted. 10 mL of a 1% formalin solution was injected into the stomachs to immerse them in the solution for 10 minutes or more. The stomachs were cut open along the greater curvature to measure the length (mm) of a damage by a stereomicroscope. The total of damages of each rat was taken as the damage coefficient of the rat.

Experiment [2] deals with male rats (SPF). Briefly: Ethanol-inducted gastric mucosa damage test. The protocol: as §1, §2
An ethanol-inducted gastric mucosa damage test was conducted on male rats (SPF) by using the composite magnesium oxide particles obtained in Example 5. For comparison, magnesium oxide manufactured by Kyowa Chemical Industry Co., Ltd. was used.
After about 24 hours of fasting, 1 mL of ethanol (99.5%) was orally administered to each rat. […]

The test system of experiment [3] is male rats (SPF). Description: Indometacin-inducted gastric mucosa damage test. The protocol: as §1, §2
An indometacin-inducted gastric mucosa damage test was conducted on male rats (SPF) by using the composite magnesium oxide particles obtained in Example 5. For comparison, magnesium oxide manufactured by Kyowa Chemical Industry Co., Ltd. was used.
After about 24 hours of fasting, 30 mg/Kg of indometacin (15 mg/mL: suspended by using a 0.5% methylcellulose aqueous solution) was subcutaneously administered to each rat. […]

Experiment [4] deals with male rats (SPF). Description: Aspirin-inducted gastric mucosa damage test. The protocol:
as §1, §2
An aspirin-inducted gastric mucosa damage test was conducted on male rats (SPF) by using the composite magnesium oxide particles obtained in Example 5. For comparison, magnesium oxide manufactured by Kyowa Chemical Industry Co., Ltd. was used.
After about 24 hours of fasting, 125 mg/Kg of aspirin (62.5 mg/mL: suspended by using a methylcellulose aqueous solution) was orally administered to each rat twice every 2 hours. […]

The subject of experiment [5] is male rats (SPF). Description: Gastric ulceration test (acetic acid ulceration models). The protocol: The influence of the composite magnesium oxide particles obtained in Example 3 upon gastric ulceration was investigated using male rats (SPF). For comparison, magnesium oxide particles (MgO) manufactured by Kyowa Chemical Industry Co., Ltd. were used. The rats were abdominally operated under anesthesia with pentobarbital sodium (10 mg/Kg, i.p.), 30 μL of 20% acetic acid was injected into the submucosal coat at the boundary between the body of stomach and the vestibular region of the pyloric from the serosal side to prepare acetic acid ulceration models. […] On the day following the last administration, the stomachs of the models were extracted under anesthesia with pentobarbital sodium (40 mg/Kg, i.p.) to measure the long diameter and short diameter (mm) of an ulcer.

Turning to `[O]=[Mg]` [Comparative example, magnesium oxide], the “Damage coefficient (Lesions)” value in experiment [1] (60 min before, water immersion stress 23° C., 6 hours, 6 rats) is given as 18.1 ± 3.6 mm; in experiment [2] (1 mL ethanol (99.5%) orally, 1 hour, 6 rats), 25.5 ± 8.9 mm; in experiment [3] (indometacin 30 mg/Kg s.c., 5 hours, 6 rats), 0.0 ± 0.0 mm; in experiment [4] (aspirin 125 mg/Kg orally twice, 4 hours after second, 6 rats), 27.8 ± 4.3 mm. For the same molecule, the Inhibition ratio in experiment [1] (water immersion stress) came to 56%; in experiment [2] (ethanol-inducted) it was 48%; in experiment [3] (indometacin-inducted) it was 100%; in experiment [4] (aspirin-inducted), 43%. For the same molecule, in experiment [5], the “Inhibition ratio of gastric lesion” value worked out at 19%. For the same molecule, in experiment [5] (once each day for 10 days, 6 rats), the “Damage coefficient (Lesions area)” value was determined as 5.2 ± 1.0 mm^2.

The values are drawn from patent publication US20100260852A1, “LAXATIVE AGENT” (priority 2007, published 2010).
